The results in this text go back to US20240261296A1, “THERAPEUTIC MODALITIES FOR INHIBITING PANCREATIC BETA CELL IMPAIRMENT AND TREATING DIABETES” (Hadasit Medical Research Serices & Development Ltd., priority 2021, published 2024).

The nature of data set [1]: kidney function parameters in sera of C57Bl/6 mice. It counts as in vivo. The protocol: Blood was collected by cardiac puncture, and 50 μl were collected in EDTA containing tubes for cell blood count (CBC). Further, 200-300 μl of blood was centrifuged and serum was collected for biochemical analysis.
D. Effects of orally administered compounds on kidney function parameters: Creatinine and Urea levels were measured in the sera obtained from mice 24 h after the third gavage with saline/DMSO (Control Saline); 3 mg/kg/day Compound C5; Compound C13 or the EP3 antagonist L-798106. […] 12 B for Urea.
D. Kidney function parameters: Creatinine (FIG. 15A) and Urea (FIG. 15B) were measured in sera obtained from mice, 24 h after injection of either Saline/DMSO (Control Saline), Compound C5 or L-798106.

Another data set relates to MIN6 cells. Briefly: rescue of MIN6 cells from palmitate-induced apoptosis (cleaved caspase 3 western blot; FACS SubG1). It is filed as cell-based, murine. Particulars: palmitic acid 0.3 mM, 48 hours; compared to L-798106. The protocol: Islet and cell culture: The pancreatic β-cell line MIN6, which is a clonal murine insulin-secreting line, was cultured in DMEM (Biological Industries, Beit Haemek, Israel) supplemented with 11 mM Glucose, 2 mM glutamine, 15% heat-inactivated fetal calf serum (FCS), 100 U/ml penicillin, 100 µg/ml streptomycin and 61 μM β-mercaptoethanol. Human islets were obtained from the European Consortium for Islet Transplantation (ECIT) at the San Raffaele Hospital and from the Niguarda Hospital, (Milan, Italy) and cultured in CMRL-1066 media (Biological Industries, Beit HaEmek, Israel) supplemented with 10% FCS, 5.5 mM glucose, 2 mM L-Glutamine, 100 U/ml penicillin, 100 μg/ml streptomycin and 150 μg/ml gentamycin. Palmitate was added to 1% FCS and 0.5% defatted BSA (Roche, Germany).
Western blotting: Cells were lyzed in Laemmli protein sample buffer, separated on SDS-polyacrylamide gel, and transferred to […] nitrocellulose membranes (Schleicher and Schuell, Dassel, Germany). After blocking in 5% dried skimmed milk, the membranes were first incubated with the appropriate antibodies against: cleaved caspase-3 (Asp175) (Cell Signaling Technology Danvers, MA) and α-tubulin (Sigma-Aldrich.) and then with horseradish peroxidase conjugated anti-rabbit or anti-mouse IgG, followed by analysis with an enhanced chemiluminescence detection kit (Biological Industries, Israel).
The remaining compounds were screened for the ability to rescue β-cells from palmitate-induced apoptosis as compared to the commercial EP3 antagonist L-798106 by measuring the levels of the cleaved caspase 3 apoptotic marker, using Western Blot analysis (FIG. 1). […] Cell extracts were analyzed by western blotting for the presence of cleaved caspase 3 as compared to α-Tubulin.
The ability of the compounds to rescue β-cells from apoptosis was also evaluated using FACS analysis and measuring the SubG1 population (FIG. 2). […] Collected cells were analyzed by FACS and the SubG1 fractions (representing apoptotic cell products or components were compared. The average of 4-6 independent experiments is presented in FIG. 2.
A general note: In western blotting, separated proteins are transferred to a membrane and probed.

The nature of data set [2]: blood insulin levels in C57Bl/6 mice (ELISA). It is filed as in vivo. The protocol: B. For measurements of blood insulin levels, insulin was measured in blood obtained from the vein tail of C57Bl/6 mice (n=8/group) 24 h (t24) after the third gavage with vehicle (Control-Saline); 3 mg/kg/day Compound C5; Compound C13 or the EP3 antagonist L-798106 (total 9 mg/kg) using ELISA mouse insulin kit (Mercodia). Five samples randomly chosen from each group were measured.
B. Blood insulin levels: Insulin was measured in sera obtained from mice injected with either Saline/DMSO (control), Compound 5 (C5); Compound C13 (C13) or L-798106, using ELISA mouse insulin kit according to the manufacturer's instructions (Mercodia). Five samples randomly chosen from each group were measured. […] Similarly, to normal blood glucose, the mice keep their blood insulin concentrations within the normal range.

The next data set has as its system db/db mice. Briefly: Insulin Tolerance Test (ITT). It is filed as in vivo. Conditions: 8 weeks oral treatment; for glucose levels after insulin injection (insulin sensitivity), db/db mice: 0.75 U/kg insulin, all time points, vs vehicle. The protocol:
An Insulin Tolerance Test (ITT) was conducted to determine the effect of the test compounds on insulin resistance, following oral administration of Vehicle or the tested compounds as described in Example 9. To this end, the different treated groups were further subjected to a subsequent 5-hour fast and then injected with 0.75 U/kg insulin. Blood glucose was measured at the time of insulin injection (baseline level) and at the indicated time intervals thereafter. Blood glucose levels and AUC of the wild-type mice are presented in FIGS. 19A-19B respectively, and blood glucose levels and AUC of the db/db mice are presented in FIGS. 19C-19D respectively. The different test groups as presented in FIGS. 19A-19D are represented as described in Example 9.
To determine the effect of the C17 and C20 compounds on insulin resistance, an ITT was conducted essentially as described in Example 11. Blood glucose levels and AUC of the wild-type mice are presented in FIGS. 27A-27B respectively (n=5-15), and blood glucose levels and AUC of the db/db mice are presented in FIGS. 27C-27D respectively (n=5-10). The different test groups as presented in FIGS. 27A-27D are represented as described in Example 14.

Data set [3] is described as follows: liver function parameters in sera of C57Bl/6 mice. It is filed as in vivo. The protocol: Blood was collected by cardiac puncture, and 50 μl were collected in EDTA containing tubes for cell blood count (CBC). Further, 200-300 μl of blood was centrifuged and serum was collected for biochemical analysis. C. Effects of orally administered compounds on liver function parameters: The blood levels of albumin, the liver aspartate transaminase (AST) and alanine transaminase (ALT) were measured in the sera obtained from mice 24 h after the third gavage with saline/DMSO (Control Saline); 3 mg/kg/day Compound C5; Compound C13 or the EP3 antagonist L-798106. Results are presented in FIG. 11A for Albumin, FIG. 11B for AST, and FIG. 11C for ALT. […] All p-values >0.05. C. Liver function parameters: Blood levels of albumin (FIG. 14A), liver transaminases: aspartate transaminase (AST, FIG. 14B) and alanine transaminase (ALT, FIG. 14C), as well as bilirubin, were measured in sera obtained from mice 24 h after injection of either Saline/DMSO (Control Saline); C5; C13 or L-798106. […] Typically, this biomarker levels rise with liver injury and help monitor function under drugs treatment. Here a decrease in the levels of ALT in the serum of L-798106- and C13-treated mice, is not considered to indicate liver damage. Bilirubin<1 μM was measured in all test groups.

Where [4] appears, read: oral 3 mg/kg/day, 24 h after third gavage.
Where [5] appears, read: oral 3 mg/kg/day (total 9 mg/kg), 24 h after third gavage.

On to `CC[C@H](C)c1ccc(S(=O)(=O)Nc2ccccc2C(=O)N2C[C@@H](C)O[C@@H](C)C2)cc1` [Compound C5, 4-((S)-sec-butyl)-N-(2-((2S,6R)-2,6-dimethylmorpholine-4-carbonyl)phenyl)benzenesulfonamide], for which the Creatinine entry in data set [1] (IP, 24 h after injection) is given as “no statistically significant differences”; in data set [1] (setting [4]), “No statistically significant differences”. Besides, the Urea entry in data set [1] (IP, 24 h after injection) is reported as “no statistically significant differences”; in data set [1] (setting [4]) it was “No statistically significant differences”. For the same compound, in the data set with MIN6 cells, the “rescue of β-cells from palmitate-induced apoptosis (cleaved caspase 3; SubG1 population)” value is listed as “exceptionally high efficacy”. Besides, the blood insulin levels entry in data set [2] (IP single dose 3 mg/kg) and in data set [2] (setting [5]) was “no statistically significant differences” each time. The “glucose levels after insulin injection (insulin sensitivity), db/db mice” value (shortened to “glucose levels after insulin injection”) in the data set on db/db mice was “Improve Insulin Sensitivity”. In addition, the “alanine transaminase (ALT)” value in data set [3] (IP, 24 h after injection) is “no statistically significant differences”; in data set [3] (setting [4]), “no statistically significant differences”. Moreover, the albumin result is given as “no statistically significant differences” in data set [3] (IP, 24 h after injection) and “no statistically significant differences” in data set [3] (setting [4]). In addition, the “aspartate transaminase (AST)” value in data set [3] (IP, 24 h after injection) is recorded as “no statistically significant differences”; in data set [3] (setting [4]) it was “no statistically significant differences”.

Consider `CC[C@@H]1CC[C@H](C)N1C(=O)c1cccc(NS(=O)(=O)c2ccc(C)c(F)c2)c1` [Compound C13, N-(3-((2R,5S)-2-ethyl-5-methylpyrrolidine-1-carbonyl)phenyl)-3-fluoro-4-methylbenzenesulfonamide], for which, in data set [1] (IP, 24 h after injection), the Creatinine result was “p-value >0.05” and the Urea entry is given as “p-value >0.05”. Also, in data set [1] (setting [4]), the Creatinine result is “No statistically significant differences” and the Urea result is “No statistically significant differences”. Moreover, in the data set on MIN6 cells, the “rescue of β-cells from palmitate-induced apoptosis (cleaved caspase 3; SubG1 population)” value is recorded as “exceptionally high efficacy”. Further, the blood insulin levels result in data set [2] (IP single dose 3 mg/kg) is given as “no statistically significant differences”. Further, the blood insulin levels result in data set [2] (setting [5]) was “no statistically significant differences”. The “glucose levels after insulin injection” value in the data set with db/db mice is recorded as “Improve Insulin Sensitivity”. Further, in data set [3] (IP, 24 h after injection), the “alanine transaminase (ALT)” value is “lower concentrations of alanine transaminase”, the albumin entry was “no statistically significant differences” and the “aspartate transaminase (AST)” value is recorded as “no statistically significant differences”. Moreover, in data set [3] (setting [4]), the “alanine transaminase (ALT)” value is on record as “no statistically significant differences”, the albumin entry is given as “no statistically significant differences” and the “aspartate transaminase (AST)” value is given as “no statistically significant differences”.

Take `COc1ccc(Br)cc1S(=O)(=O)NC(=O)/C=C/c1ccccc1Cc1ccc2ccccc2c1` [Compound L-798106, (2E)-N-[(5-bromo-2-methoxyphenyl)sulfonyl]-3-[2-(2-naphthalenylmethyl)phenyl]-2-propenamide, reference compound]: in data set [1] (IP, 24 h after injection), the Creatinine result is recorded as “no statistically significant differences” and the Urea entry is “no statistically significant differences”. In addition, in data set [1] (setting [4]), the Creatinine entry is listed as “No statistically significant differences” and the Urea entry is reported as “No statistically significant differences”. For the same compound, the blood insulin levels entry in data set [2] (IP single dose 3 mg/kg) is “no statistically significant differences”. For the same compound, in data set [2] (setting [5]), the blood insulin levels result is reported as “no statistically significant differences”. Besides, in the data set on db/db mice, the “glucose levels after insulin injection” value is on record as “significant decrease in glucose levels”. For the same compound, the “baseline glucose levels in ITT” value with db/db mice (5-hour fast) is listed as “reduced baseline glucose levels”. Further, in data set [3] (IP, 24 h after injection), the “alanine transaminase (ALT)” value is reported as “lower concentrations of alanine transaminase”, the albumin entry was “no statistically significant differences” and the “aspartate transaminase (AST)” value is reported as “no statistically significant differences”. In addition, in data set [3] (setting [4]), the “alanine transaminase (ALT)” value was “no statistically significant differences”, the albumin entry is reported as “no statistically significant differences” and the “aspartate transaminase (AST)” value is recorded as “no statistically significant differences”.
